Reference: patent US10556890B2, “Heteroaryl compounds and methods of use thereof” (Sunovion Pharmaceuticals Inc., priority 2012, dated 2020)

What was measured:
Sprague Dawley rats = assay: PCP-induced hyperactivity in rats; format: in vivo; set-up: key: −: No inhibition of PCP hyperactivity; +: Significant inhibition of PCP hyperactivity (P value < 0.05); details: vs. vehicle + PCP
Experimental: (§1) Anti-psychotic like activity of the compounds was evaluated […] using the PCP hyperactivity (in rats) and Pre-Pulse Inhibition (PPI; in mice) models of schizophrenia.
Animals: PCP Hyperactivity: Male Sprague Dawley rats from Harlan (Indianapolis, Ind.) were used in these studies. Upon receipt, rats were assigned unique identification numbers and were group housed with 3 rats per cage in polycarbonate cages with micro-isolator filter tops. All rats were examined, handled, and weighed prior to initiation of the study to assure adequate health and suitability. The rats were maintained at 12/12 light/dark cycle with lights on at 7:00 am EST. The room temperature was maintained between 20 and 23° C. with a relative humidity maintained around 50%. Chow and water were provided ad libitum for the duration of the study. For each test, animals were randomly assigned across treatment groups.
The test chambers were Plexiglas rectangular chambers (24×45 cm) that fit inside two steel frames (9.5×18 inches) and were fitted with two-dimensional 4×8 beam grids to monitor horizontal and vertical locomotor activity (Hamilton Kinder, San Diego, Calif.). The analysis was configured to divide the open field of the chamber into a center and a periphery zone. Distance traveled was measured from horizontal beam breaks as the rat traveled whereas rearing activity was measured from vertical beam breaks.
Rats were administered with vehicle, test compound, or risperidone (0.5-1 mg/kg; i.p) and placed in the test chambers for 30 min measurement of baseline activity. Rats were then injected with either water or PCP (2.5 mg/kg; s.c) and placed back in the test chambers for a 60-minute session. At the end of each test session the chambers were thoroughly cleaned.

C57Bl/6J mice = assay: Pre-pulse Inhibition (PPI) of startle in mice; format: in vivo; set-up: key: −: No change in PPI; +: Significant increase in PPI at one pre-pulse intensity (P value < 0.05); ++: Significant increase in PPI at two pre-pulse intensities (P value < 0.05); +++: Significant increase in PPI at three pre-pulse intensities (P value < 0.05); details: 30 min prior to PPI test, vs. vehicle
Experimental: as §1
Animals—PPI: Male C57Bl/6J mice from Jackson Laboratories (Bar Harbor, Me.) were used in these studies. Upon receipt, mice were assigned unique identification numbers (tail marked) and were group housed with 4 mice per cage in OptiMICE ventilated cages. All animals remained housed in groups of four during the remainder of the study. All mice were acclimated to the colony room for at least one week prior to testing. During the period of acclimation, mice were examined on a regular basis, handled, and weighed to assure adequate health and suitability. Animals were maintained on a 12/12 light/dark cycle. The room temperature was maintained between 20 and 23° C. with a relative humidity maintained between 30% and 70%. Chow and water were provided ad libitum for the duration of the study. In each test, animals were randomly assigned across treatment groups.
The acoustic startle is an unconditioned reflex response to an external auditory stimulus. Prepulse inhibition of startle (PPI) refers to the reduction in the startle response caused by the presentation of a low-intensity auditory stimulus prior to the startle stimulus. The PPI paradigm is used for the study of schizophrenia and antipsychotic action due to the similarities between the results from human and rodent studies. PPI has been used as a tool for the assessment of deficiencies in sensory-motor gating observed in schizophrenia and to screen for potential antipsychotic drugs. Various psychotomimetic drugs such as PCP can disrupt PPI. In mice, antipsychotic drugs such as clozapine can reverse the disruption of PPI induced by PCP.
Mice were placed in the PPI chambers (Med Associates) for a 5 min session of white noise (70 dB) habituation. After the habituation period the test session was initiated. The session started with a habituation block of 6 presentations of the startle stimulus alone, followed by 10 PPI blocks, each of which consisted of 6 different types of trials. Trial types were: ‘null’ (no stimuli), ‘startle’ (120 dB), ‘startle plus prepulse’ (4, 8 and 12 dB over background noise, i.e., 74, 78 or 82 dB) and ‘prepulse’ (82 dB). Trial types were presented in a random order within each block. Each trial started with a 50 ms stimulus-free period during which baseline movements were recorded. This was followed by a subsequent 20 ms period during which the prepulse stimulus was presented and responses to the prepulse measured. After a further 100 ms period, the startle stimulus was presented for 40 ms and responses recorded for 100 ms from startle onset. Responses were sampled every ms. The inter-trial interval was variable with an average of 15 s (range from 10 to 20 s). In ‘startle’ trials the basic auditory startle response was measured. The basic startle response was calculated as the mean startle response of all ‘startle’ trials (i.e., excluding the first habituation block). In ‘startle plus prepulse’ trials the degree of inhibition of the normal startle was calculated and expressed as a percentage of the basic startle response.
Mice were treated with vehicle, haloperidol (1 mg/kg; i.p) or test compound 30 min prior to PPI test. The PPI enclosures were cleaned following each test.

[1] = 3 mg/kg Compound + PCP (2.5 mg/kg s.c.)
[2] = 10 mg/kg Compound + PCP (2.5 mg/kg s.c.)
[3] = 30 mg/kg Compound + PCP (2.5 mg/kg s.c.)

| SMILES | Total Distance Traveled (cm), PCP-induced hyperactivity (Sprague Dawley rats; [1]) | Total Distance Traveled (cm), PCP-induced hyperactivity (Sprague Dawley rats; [2]) | Total Distance Traveled (cm), PCP-induced hyperactivity (Sprague Dawley rats; [3]) | Effect on Pre-pulse Inhibition (PPI) (C57Bl/6J mice; 3 mg/kg) | Effect on Pre-pulse Inhibition (PPI) (C57Bl/6J mice; 10 mg/kg) | Effect on Pre-pulse Inhibition (PPI) (C57Bl/6J mice; 30 mg/kg) | Total Distance Traveled (cm), PCP-induced hyperactivity (Sprague Dawley rats; 100 mg/kg Compound + PCP (2.5 mg/kg s.c.)) |
| --- | --- | --- | --- | --- | --- | --- | --- |
| Cc1sc2ccccc2c1C1C=CN=CN1 (stereo not drawn) [Compound 3] | − | + | + | + | + | +++ |  |
| Cl.Fc1sc2ccccc2c1C1C=CN=CN1 (stereo not drawn) [Compound 15] | − | − | − | − | + | ++ |  |
| Cc1c(C2C=CN=CN2)sc2ccccc12.Cl (stereo not drawn) [Compound 20] | + | − | + | − | − | − |  |
| Cc1cc(C2C=CN=CN2)cs1.Cl (stereo not drawn) [Compound 21] |  | − | − | − | − | − | − |
| Fc1ccc2c(c1)N=CNC2c1c(F)sc2ccccc12 (stereo not drawn) [Compound 239] | + (increase) | + (increase) | + (increase) | − | − | +++ |  |
